Test results from patent US11958861B2, “Spirocyclic lactams as JAK2 V617F inhibitors” (Incyte Corporation, priority 2021, dated 2024).
Counter-ions that a name gives are not always drawn.

Key:
[1] = biological target: T1, catalytic domain (JH1, amino acids 808-1132) of human JAK2 (Homo sapiens, UniProt O60674); assay: JAK2 HTRF Enzyme Activity Assay; assay type: biochemical; settings: ATP 30 μM, read-out: ENZ 30UMATP
T1 construct: catalytic domain (JH1, amino acids 808-1132) of human JAK2; His (N); purchased BPS Bioscience 40450; host or cells: baculovirus expression system
T1 sequence (O60674 808-1132): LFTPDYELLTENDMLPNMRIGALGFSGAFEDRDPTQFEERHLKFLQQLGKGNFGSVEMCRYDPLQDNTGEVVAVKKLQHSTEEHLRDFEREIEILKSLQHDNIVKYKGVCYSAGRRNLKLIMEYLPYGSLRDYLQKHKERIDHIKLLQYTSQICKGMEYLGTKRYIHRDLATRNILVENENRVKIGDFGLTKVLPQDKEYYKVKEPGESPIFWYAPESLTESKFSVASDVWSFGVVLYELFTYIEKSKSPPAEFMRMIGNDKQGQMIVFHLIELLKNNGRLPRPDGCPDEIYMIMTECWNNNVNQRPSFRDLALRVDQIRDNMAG
Method: Example D. JAK2 HTRF Enzyme Activity Assay
JAK2 enzyme activity assays utilize catalytic domain (JH1, amino acids 808-1132) of human JAK2 expressed as N-terminal His-tagged protein in a baculovirus expression system (BPS Bioscience, Catalog #40450). The assays was conducted in black 384-well polystyrene plates in a final reaction volume of 20 μL. JAK2 (0.015 nM) was incubated with compounds (100 nL serially diluted in DMSO) in the presence of ATP (30 μM or 1 mM) and 500 nM Biotin-labeled […] (SEQ ID NO.: 1) peptide (BioSource International, custom synthesis) in assay buffer (50 mM Tris, pH=7.5, 10 mM MgCl2, 0.01% Brij-35, 0.1% BSA, 1 mM EGTA, 5% Glycerol and 5 mM DTT) for 60 minutes at 25° C. The reactions were stopped by the addition of 10 μL of detection buffer (50 mM Tris, pH 7.8, 0.5 mg/mL BSA, 150 mM NaCl), supplemented with EDTA, LANCE Eu-W1024 anti-phosphotyrosine (PY20), (PerkinElmer, Catalog #AD0067) and Streptavidin SureLight APC (PerkinElmer Catalog #CR130-100), for a final concentration of 15 mM, 1.5 nM and 75 nM, respectively. HTRF signals were read after 30 minutes incubation at room temperature on a PHERAstar FS plate reader (BMG LABTECH). Data was analyzed with IDBS XLfit and GraphPad Prism 5.0 software using a four parameter dose response curve to determine IC50 for each compound.

[2] = biological target: T2, pseudo-kinase domain (JH2, amino-acids 536-812) of human V617F mutant JAK2 (Homo sapiens, UniProt O60674, F794H/V617F/W659A/W777A); assay: JAK2 LanthaScreen JH2-V617F Binding Assay; settings: 1 hour at 25° C.
T2 construct: pseudo-kinase domain (JH2, amino-acids 536-812 with 3 surface mutations W659A, W777A, F794H); purchased BPS Bioscience 79498; host or cells: baculovirus expression system
T2 sequence (O60674 536-812 V617F/W659A/W777A/F794H): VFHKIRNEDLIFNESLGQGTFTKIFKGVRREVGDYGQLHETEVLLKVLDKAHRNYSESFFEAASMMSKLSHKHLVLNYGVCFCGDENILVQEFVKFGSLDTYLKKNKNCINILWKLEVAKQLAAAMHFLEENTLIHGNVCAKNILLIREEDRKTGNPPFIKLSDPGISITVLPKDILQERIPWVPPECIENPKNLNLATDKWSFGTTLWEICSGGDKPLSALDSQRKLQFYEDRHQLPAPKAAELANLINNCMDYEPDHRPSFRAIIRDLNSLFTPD
Method: Example C. JAK2 LanthaScreen JH2-V617F Binding Assay
(§1) JAK2 JH2-V617F binding assay utilizes pseudo-kinase domain (JH2, amino-acids 536-812 with 3 surface mutations W659A, W777A, F794H) of human V617F mutant JAK2 expressed as C-terminal His-Avi-tagged, biotinylated protein in a baculovirus expression system (BPS Bioscience, Catalog #79498). The assay was conducted in black 384-well polystyrene plates in a final reaction volume of 20 μL. JAK2 JH2-V617F (0.26 nM) was incubated with compounds (100 nL serially diluted in DMSO) in the presence of 50 nM Fluorescent JAK2-JH2 Tracer (MedChem Express Catalog #HY-102055) and 0.25 nM Streptavidin-Tb cryptate (Cisbio Part #610SATLB) in assay buffer (50 mM Tris, pH=7.5, 10 mM MgCl2, 0.01% Brij-35, 0.1% BSA, 1 mM EGTA, 5% Glycerol and 5 mM DTT). Non-specific binding was accessed in the presence of 2 mM ATP. After incubation for 1 hour at 25° C., LanthaScreen signals were read on a PHERAstar FS plate reader (BMG LABTECH). Data was analyzed with IDBS XLfit and GraphPad Prism 5.0 software using a four parameter dose response curve to determine IC50 for each compound.

[3] = biological target: T3, pseudo-kinase domain (JH2, amino-acids 536-812) of human Wild Type JAK2 (Homo sapiens, UniProt O60674, F794H/W659A/W777A); assay: JAK2 LanthaScreen JH2-WT Binding Assay; settings: 1 hour at 25° C.
T3 construct: pseudo-kinase domain (JH2, amino-acids 536-812 with 3 surface mutations W659A, W777A, F794H); purchased BPS Bioscience 79463; host or cells: baculovirus expression system
T3 sequence (O60674 536-812 W659A/W777A/F794H): as the sequence (O60674 536-812 V617F/W659A/W777A/F794H) above, with F82V counted along it
Method: Example B. JAK2 LanthaScreen JH2-WT Binding Assay
as §1, with “JH2-WT” for “JH2-V617F”, “Wild Type” for “V617F mutant”, “#79463).” for “#79498).”, “JH2-WT (0.145” for “JH2-V617F (0.26”

[4] = biological target: T4, catalytic domain (JH1, amino acids 826-1132) of human JAK2 (Homo sapiens, UniProt O60674); assay: JAK2 LanthaScreen JH1 Binding Assay; settings: 2 hours at 25° C.
T4 construct: catalytic domain (JH1, amino acids 826-1132) of human JAK2; purchased Carna Biosciences 08-445-20N; host or cells: baculovirus expression system
T4 sequence (O60674 826-1132): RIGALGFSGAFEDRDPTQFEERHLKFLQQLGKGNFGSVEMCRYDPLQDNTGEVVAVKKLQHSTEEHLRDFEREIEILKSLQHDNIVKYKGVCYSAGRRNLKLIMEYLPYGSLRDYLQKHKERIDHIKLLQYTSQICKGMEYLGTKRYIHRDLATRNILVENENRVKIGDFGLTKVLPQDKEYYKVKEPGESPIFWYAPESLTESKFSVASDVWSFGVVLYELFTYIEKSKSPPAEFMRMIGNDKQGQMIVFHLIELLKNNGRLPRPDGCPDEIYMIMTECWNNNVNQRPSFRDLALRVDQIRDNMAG
Method: Example A. JAK2 LanthaScreen JH1 Binding Assay
JAK2 JH1 binding assay utilizes catalytic domain (JH1, amino acids 826-1132) of human JAK2 expressed as N-terminal FLAG-tagged, biotinylated protein in a baculovirus expression system (Carna Biosciences, Product #08-445-20N). The assay was conducted in black 384-well polystyrene plates in a final reaction volume of 20 μL. JAK2 JH1 (1.5 nM) was incubated with compounds (100 nL serially diluted in DMSO) in the presence of 50 nM Fluorescent JAK2-JH1 Tracer and 0.5 nM Streptavidin-Tb cryptate (Cisbio Part #610SATLB) in assay buffer (50 mM Tris, pH=7.5, 10 mM MgCl2, 0.01% Brij-35, 0.1% BSA, 1 mM EGTA, 5% Glycerol and 5 mM DTT). Non-specific binding was accessed in the presence of 2 mM ATP. After incubation for 2 hours at 25° C., LanthaScreen signals were read on a PHERAstar FS plate reader (BMG LABTECH). Data was analyzed with IDBS XLfit and GraphPad Prism 5.0 software using a four parameter dose response curve to determine IC50 for each compound.

Row | Compound | IC50 [1] [nM] | IC50 [2] [nM] | IC50 [3] [nM] | IC50 [4] [nM]
1 | CN(C)C(=O)N1CCC2(CC1)CC1(C2)C(=O)N(C)c2cnc3[nH]c(-c4cnn(C)c4)c(-c4ccc5c(cnn5C)c4)c3c21 [Example 60, N,N,6-Trimethyl-1-(1-methyl-1H-indazol-5-yl)-2-(1-methyl-1H-pyrazol-4-yl)-7-oxo-6,7-dihydro-3H-dispiro[dipyrrolo[2,3-b:3′,2′-d]pyridine-8,1′-cyclobutane-3′,4″-piperidine]-1″-carboxamide, trifluoroacetate salt] | 1250 to 2500 | ≤ 100 | ≤ 100 | 1250 to 2500
2 | CN1C(=O)C2(CCN(C3(CC#N)CCC3)CC2)c2c1cnc1[nH]c(-c3cnn(CC(C)(C)O)c3)c(-c3cc4cnccc4s3)c21 [Example 48, 2-(1-(2-(1-(2-Hydroxy-2-methylpropyl)-1H-pyrazol-4-yl)-6-methyl-7-oxo-1-(thieno[3,2-c]pyridin-2-yl)-6,7-dihydro-3H-spiro[dipyrrolo[2,3-b:3′,2′-d]pyridine-8,4′-piperidin]-1′-yl)cyclobutyl)acetonitrile, trifluoroacetate salt] | 100 to 500 | ≤ 100 | ≤ 100 | 100 to 500
3 | CN1C(=O)C2(Cc3ccccc3C2)c2c1cnc1[nH]c(-c3ccc(CN4CCC(S(C)(=O)=O)CC4)cc3)cc21 [Example 57, 6-Methyl-2-(4-((4-(methylsulfonyl)piperidin-1-yl)methyl)phenyl)-1′,3,3′,6-tetrahydro-7H-spiro[dipyrrolo[2,3-b:3′,2′-d]pyridine-8,2′-inden]-7-one] | > 2500 | > 2500 | 1250 to 2500 | > 2500
4 | 2′-(1-(1-Cyclopropylethyl)-1H-pyrazol-4-yl)-1-(ethylsulfonyl)-6′-(methyl-d3)-r-(1-methyl-1H-indazol-5-yl)-3′,6′-dihydro-7′H-spiro[azepane-4,8′-dipyrrolo[2,3-b:3′,2′-d]pyridin]-7′-one, trifluoroacetate salt [Example 104] | 100 to 500 | ≤ 100 | ≤ 100 | 100 to 500
5 | CCS(=O)(=O)N1CCC[C@@]2(CC1)C(=O)N(C)c1cnc3[nH]c(-c4cnn(C(C)C)c4)c(-c4ccc5c(cnn5C)c4)c3c12 (single isomer, unassigned) [Example 53b] | 100 to 500 | ≤ 100 | ≤ 100 | 100 to 500
6 | CN1C(=O)C2(CCCC2)c2c1cnc1[nH]c(C3CC3)c(-c3ccc4c(cnn4C)c3)c21 [Example 9, 2′-Cyclopropyl-6′-methyl-1′-(1-methyl-1H-indazol-5-yl)-3′,6′-dihydro-7′H-spiro[cyclopentane-1,8′-dipyrrolo[2,3-b:3′,2′-d]pyridin]-7′-one, trifluoroacetate salt] | > 2500 | 100 to 500 | 100 to 500 | > 2500
7 | CN1C(=O)C2(CCN(C3(CC#N)CCC3)CC2)c2c1cnc1[nH]c(-c3cnn(CC(C)(C)O)c3)c(-c3ccc(C(F)(F)F)cc3)c21 [Example 52, 2-(1-(2-(1-(2-Hydroxy-2-methylpropyl)-1H-pyrazol-4-yl)-6-methyl-7-oxo-1-(4-(trifluoromethyl)phenyl)-6,7-dihydro-3H-spiro[dipyrrolo[2,3-b:3′,2′-d]pyridine-8,4′-piperidin]-1′-yl)cyclobutyl)acetonitrile, trifluoroacetate salt] | > 2500 | ≤ 100 | ≤ 100 | > 2500
8 | [2H]C([2H])([2H])N1C(=O)C2(CCCN(S(=O)(=O)C3(C)CC3)CC2)c2c1cnc1[nH]c(-c3cnn(C(C)C)c3)c(-c3ccc4c(cnn4C)c3)c21 (single isomer, unassigned) [Example 103, 2′-(1-Isopropyl-1H-pyrazol-4-yl)-6′-(methyl-d3)-1′-(1-methyl-1H-indazol-5-yl)-1-((1-methylcyclopropyl)sulfonyl)-3′,6′-dihydro-7′H-spiro[azepane-4,8′-dipyrrolo[2,3-b:3′,2′-d]pyridin]-7′-one, trifluoroacetate salt] | 500 to 1250 | ≤ 100 | ≤ 100 | 100 to 500
9 | CN1C(=O)[C@@]2(CCN(CC3(CC#N)CC3)C2)c2c1cnc1[nH]c(-c3cnn(C)c3)c(-c3ccc4c(cnn4C)c3)c21 (single isomer, unassigned) [Example 66] | 500 to 1250 | ≤ 100 | ≤ 100 | 500 to 1250
10 | CN1C(=O)C2(CCN(C3(CC#N)CCC3)CC2)c2c1cnc1[nH]c(-c3cnn4c3CCCC4)c(-c3ccc4c(cnn4C)c3)c21 [Example 43, 2-(1-(6-Methyl-1-(1-methyl-1H-indazol-5-yl)-7-oxo-2-(4,5,6,7-tetrahydropyrazolo[1,5-a]pyridin-3-yl)-6,7-dihydro-3H-spiro[dipyrrolo[2,3-b:3′,2′-d]pyridine-8,4′-piperidin]-1′-yl)cyclobutyl)acetonitrile] | > 2500 | ≤ 100 | ≤ 100 | > 2500
11 | CCS(=O)(=O)c1ccc(-c2[nH]c3ncc4c(c3c2-c2ccc3c(cnn3C)c2)C2(CCN(C3(CC#N)CCC3)CC2)C(=O)N4C)cc1 [Example 35, 2-(1-(2-(4-(Ethylsulfonyl)phenyl)-6-methyl-1-(1-methyl-1H-indazol-5-yl)-7-oxo-6,7-dihydro-3H-spiro[dipyrrolo[2,3-b:3′,2′-d]pyridine-8,4′-piperidin]-1′-yl)cyclobutyl)acetonitrile, trifluoroacetate salt] | 500 to 1250 | ≤ 100 | ≤ 100 | 500 to 1250
